{"source": "patent US11311609B2", "about": "“Regulating chimeric antigen receptors” (DANA-FARBER CANCER INSTITUTE, INC., priority 2017, dated 2022)", "assay_type_in_all_cases": "cell-based", "key": {"[1]": {"test_system": "FKBP* fused to Nluc", "test": "Nluc/Fluc luciferase signal ratio assay of FKBP* degradation in 293FT cells", "conditions": "wild type or CRBN-/- 293FT cells; indicated concentrations, 4 hours", "procedure": "FIG. 7A and FIG. 7B are graphs measuring the activity of a panel of dFKBP heterobifunctional compounds in cells expressing FKBP* fused to Nluc. Degradation of FKBP* is measured as a signal ratio (Nluc/Fluc) between NANOluc and firefly luciferase from the same multicistronic transcript in wild type (FIG. 7A) or CRBN −/− (FIG. 7B) 293FT cells treated with indicated concentrations of dFKBPs for 4 hours. A decrease in the signal ratio indicates FKBP* (Nluc) degradation. Additional experimental details are provided in Example 4.\nIn an effort to identify potent and selective dFKPB heterobifunctional compounds, high throughput measurements of targeted FKBP* degradation were measured by surrogate levels of luciferase. Here, FKBP* is exogenously expressed as a multicistronic transcript with two types of luciferase: nano luciferase (NLuc) and firefly luciferase (FLuc) that allow for cell normalized quantification of FKBP* protein levels. Degradation of FKBP* is measured as a signal ratio (Nluc/Fluc) in wild type (FIG. 7A) or CRBN −/− (FIG. 7B) 293FT cells treated with indicated concentrations of dFKBPs for 4 hours."}, "[2]": {"test_system": "proteins fused to mutant FKBP* with an HA tag", "test": "Immunoblot of dTAG fusion proteins in MV4;11 leukemia cells", "conditions": "indicated concentrations, 16 hours", "procedure": "FIG. 18A and FIG. 18B are immunoblots of cells treated with heterobifunctional compounds described in the present invention. Immunoblots of MV4; 11 leukemia cells expressing indicated proteins fused to mutant FKBP* with an HA tag. Cells were treated for 16 hours with indicated concentrations of FKBP* selective heterobifunctional compounds, dFKBP7 or dFKBP13 and abundance of fusion proteins measured by western immunoblot analysis. Additional experimental details are given in Example 15.\nTo test the general utility of the dTAG technology across several protein types, the indicated proteins fused to the dTAG in MV4; 11 leukemia cells were expressed. Upon treatment with the indicated dFKBP bifunctional molecules (dFKBP7 and dFKBP13), targeted protein degradation was observed as measured by western blot."}, "[3]": {"target": "T1, FKBP12WT (Homo sapiens, UniProt P62942)", "T1 construct": "HA; expressed in transfected cells; host or cells: 293FT cells (CRBN-WT or CRBN-/-)", "test": "Immunoblot of wild type FKBP12 degradation in 293FT cells (CRBN-WT or CRBN-/-)", "conditions": "4 hours", "procedure": "FIG. 6 is an immunoblot of cells treated with bi-functional molecules described in the present invention.\nThe dTAG is predicated on the selectivity of FKBP* specific ligands over endogenous, wild type FKBP. […] An immunoblot of cells treated with bi-functional molecules described in the present invention was performed. 293FT cells (CRBN-WT or CRBN−/−) expressing either HA-tagged FKBP12WT or FKBP* were treated with indicated concentrations of dFKBP7 for 4 hours.\n(§1) Isogenic 293FT cells (CRBN-WT or CRBN−/−) were engineered to express either FKBP12WT or FKBP*. Cells were treated with 100 nM of either dFKBP7 or dFKBP13 for 4 hours before lysates were prepared for western immunoblot analysis."}, "[4]": {"target": "T2, FKBP* (Homo sapiens, UniProt P62942, F37V)", "T2 construct": "HA; expressed in transfected cells; host or cells: 293FT cells (CRBN-WT or CRBN-/-)", "T2 sequence (P62942 whole entry F37V)": "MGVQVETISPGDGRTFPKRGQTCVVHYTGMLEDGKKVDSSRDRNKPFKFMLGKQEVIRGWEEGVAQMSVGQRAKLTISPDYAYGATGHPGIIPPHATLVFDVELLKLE", "test": "Immunoblot of FKBP* degradation in 293FT cells (CRBN-WT or CRBN-/-)", "conditions": "4 hours", "procedure": "FIG. 6 is an immunoblot of cells treated with bi-functional molecules described in the present invention. As described in Example 3, 293FT cells (CRBN-WT or CRBN−/−) expressing either HA-tagged FKBP12WT or FKBP* (also referred to as dFKBP12* herein) were treated with indicated concentrations of dFKBP7 for 4 hours.\nFIG. 8 is an immunoblot of cells treated with heterobifunctional compounds described in the present invention. Isogenic 293FT cells (CRBN-WT or CRBN−/−) expressing either FKBP12WT or FKBP* were treated with 100 nM of either dFKBP7 or dFKBP13 for 4 hours (Example 5).\nFIG. 9 is an immunoblot of cells treated with heterobifunctional compounds described in the present invention. Isogenic 293FT cells (CRBN-WT or CRBN−/−) expressing HA-tagged FKBP* were treated with the indicated dose of dFKBP13 for 4 hours (Example 6).\nFIG. 11 is an immunoblot of cells treated with heterobifunctional compounds described in the present invention. 293FT cells (CRBN-WT) expressing FKBP* were pretreated with 1 uM Carfilzomib (proteasome inhibitor), 0.5 uM MLN4924 (neddylation inhibitor), and 10 uM Lenalidomide (CRBN binding ligand) for two hours prior to a 4 hour treatment with dFKBP13 (Example 8). Degradation of HA-tagged FKBP* by dFKBP13 was rescued by the proteasome inhibitor Carfilzomib, establishing a requirement for proteasome function.\nThe dTAG is predicated on the selectivity of FKBP* specific ligands over endogenous, wild type FKBP. In 293T cells expressing wild type FKBP12 or FKBP*, dFKBP7 induces targeted degradation only in FKBP* expressing cells. An immunoblot of cells treated with bi-functional molecules described in the present invention was performed. 293FT cells (CRBN-WT or CRBN−/−) expressing either HA-tagged FKBP12WT or FKBP* were treated with indicated concentrations of dFKBP7 for 4 hours.\nas §1, with “In 293T cells expressing wild type FKBP12 or FKBP*, treatment with dFKBP7 and dFKBP13 induces targeted degradation only in FKBP* expressing cells. Isogenic” for “Isogenic”\nIn an effort to define the optimal concentration of dFKB13 heterobifunctional compounds to induce degradation of FKBP*, degradation was measured upon treatment with increasing concentrations of dFKBP13. Isogenic 293FT cells (CRBN-WT or CRBN−/−) were engineered to expressed HA-tagged FKBP*. Cells were treated with the indicated dose of dFKBP13 for 4 hours before lysates were prepared for western immunoblot analysis.\n293FT cells (CRBN-WT) were engineered to express FKBP*. Cells were pretreated with 1 uM Carfilzomib (proteasome inhibitor), 0.5 uM MLN4924 (neddylation inhibitor), and 10 uM Lenalidomide (CRBN binding ligand) for two hours prior to a 4-hour treatment with dFKBP13. Lysates were prepared and western immunoblot analysis performed. Degradation of HA-tagged FKBP* by dFKBP13 was rescued by the proteasome inhibitor Carfilzomib, establishing a requirement for proteasome function."}, "[5]": {"conditions": "293FT cells CRBN-WT or CRBN-/-, indicated concentrations"}, "[6]": {"conditions": "isogenic 293FT cells CRBN-WT or CRBN-/-, 100 nM"}}, "data": [{"compound": "CC[C@H](C(=O)N1CCCC[C@H]1C(=O)O[C@H](CCc1ccc(OC)c(OC)c1)c1cccc(OCC(=O)NCCCOCCOCCOCCCNC(=O)COc2cccc3c2C(=O)N(C2CCC(=O)NC2=O)C3=O)c1)c1cc(OC)c(OC)c(OC)c1", "note": "(stereo partly drawn) [dFKBP7]", "values": [{"measurement": "FKBP* (Nluc) degradation, signal ratio Nluc/Fluc", "setting": "[1]", "value": "effectively degrade FKBP* in a cereblon dependent manner"}, {"measurement": "Degradation of proteins fused to dTAG", "setting": "[2]", "value": "degradation was observed with nanomolar concentrations"}, {"measurement": "Degradation of HA-tagged FKBP12WT (immunoblot)", "setting": "[3]; [5]", "value": "not FKBPWT"}, {"measurement": "Degradation of FKBP12WT or endogenous FKBP12 (immunoblot)", "setting": "[3]; [6]", "value": "not FKBP12WT or endogenous FKBP12"}, {"measurement": "Degradation of HA-tagged FKBP* (immunoblot)", "setting": "[4]; [5]", "value": "CRBN-dependent degradation of FKBP*"}, {"measurement": "Degradation of FKBP* (immunoblot)", "setting": "[4]; [6]", "value": "CRBN-dependent degradation of FKBP*"}]}]}
